We go through 21 compounds from patent US20230339977A1, “SUBSTITUTED HETEROARYL COMPOUND, AND COMPOSITION AND APPLICATION THEREOF” (SUNSHINE LAKE PHARMA CO., LTD., priority 2020, published 2023).

In this test the test system is JAK1/TYK2. The experiment in a line: Cell level activity test of JAK1/TYK2 (IFN-α induced STAT3 phosphorylation in PBMC). The test is classed as cell-based. Particulars: Homo sapiens; P-STAT3 by ELISA in PBMC, compound 1 h, IFN-α 5000 U/mL 15 min; read-out: IC50 nM (JAK 1 /TYK2). As to the method:
IFN-α can induce the phosphorylation of STAT3 downstream of JAK1/TYK2 in PBMC, and by measuring the level of STAT3 phosphorylation, the activity of the compound on JAK1/TYK2 at the cell level can be reflected.
Whole blood was collected from healthy subjects, anticoagulated with heparin sodium, and PBMC (human peripheral blood mononuclear cells) were extracted. PBMC were seeded in a 96-well culture plates at a density of 1*106/well. Positive wells and negative wells were added with the same volume of DMSO as the compound, and the final concentration of DMSO was 0.5%. The compounds were incubated with the cells at 37° C. for 1 h, and then stimulated by adding IFN-α at a final concentration of 5000 U/mL, an equal volume of medium was added to the negative wells, and incubated for 15 min. The cells were centrifuged to remove the supernatant, then lysed, and P-STAT3 was measured according to the instructions of the ELISA kit, the absorbance was read at 450 nm, and the IC50 value or inhibition rate was calculated.

For the compound `COC1(c2cccc(-c3cn(C)c4cnc(NC(C)=O)cc34)n2)CCOC1` (stereo not drawn) [Control compound, reference compound], the IC50 stood at 52.7 nM.

For the compound `COc1cc(-c2cn(C)c3cnc(NC(C)=O)cc23)nc2c1CCOC21CCOC1` (stereo not drawn) [Example 5, N-(3-(4′-Methoxy-4,5,5′,6′-Tetrahydro-2H-Spiro[Furan-3,8′-Pyrano[3,4-b]Pyridin]-2′-yl)-1-Methyl-1H-Pyrrolo[2,3-c]Pyridin-5-yl)Acetamide], the IC50 is 178 nM.

For the compound `CC(=O)Nc1cc2c(-c3cc(C(F)F)c4c(n3)C3(CCOC3)OCC4)cn(C)c2cn1` (stereo not drawn) [Example 7, N-(3-(4′-(Difluoromethyl)-4,5,5′,6′-Tetrahydro-2H-Spiro[Furan-3,8′-Pyrano[3,4-b]Pyridin]-2′-yl)-1-Methyl-1H-Pyrrolo[2,3-c]Pyridin-5-yl)Acetamide], the IC50 amounted to 14.1 nM.

With `COCc1cc(-c2cn(C)c3cnc(NC(C)=O)cc23)nc2c1CCOC21CCOC1` (stereo not drawn) [Example 8, N-(3-(4′-(Methoxymethyl)-4,5,5′,6′-Tetrahydro-2H-Spiro[Furan-3,8′-Pyrano[3,4-b]Pyridin]-2′-yl)-1-Methyl-1H-Pyrrolo[2,3-c]Pyridin-5-yl)Acetamide], the IC50 is 41.2 nM.

In the case of `CC(=O)Nc1cc2c(-c3ccc4c(n3)C3(CCOC3)OCN4C)cn(C)c2cn1` (stereo not drawn) [Example 9, N-(1-Methyl-3-(1′-Methyl-1′,2′,4,5-Tetrahydro-2Hspiro[Furan-3,4′-Pyrido[3,2-d][1,3]Oxazin]-6′-yl)-1H-Pyrrolo[2,3-c]Pyridin-5-yl)Acetamide], the IC50 was 114 nM.

In the case of `CC(=O)Nc1cc2c(-c3ccc4c(n3)C3(CCOC3)OC(=O)N4C)cn(C)c2cn1` (stereo not drawn) [Example 10, N-(1-Methyl-3-(1′-Methyl-2′-Oxo-1′,2′,4,5-Tetrahydro-2H-Spiro[Furan-3,4′-Pyrido[3,2-d][1,3]Oxazin]-6′-yl)-1H-Pyrrolo[2,3-c]Pyridin-5-yl)Acetamide], the IC50 is above 1000 nM.

Regarding `CC(=O)Nc1cc2c(-c3ccc4c(n3)C3(CCCOC3)OC4)cn(C)c2cn1` (stereo not drawn) [Example 11, N-(3-(5′,6′-Dihydro-2′H,4′H,5H-Spiro[Furo[3,4-b]Pyridin-7,3′-Pyran]-2-yl)-1-Methyl-1H-Pyrrolo[2,3-c]Pyridin-5-yl)Acetamide], the IC50 was above 1000 nM.

In the case of `CC(=O)Nc1cc2c(-c3ccc4c(n3)C3(CCOC3)OC(C)(C)N4C)cn(C)c2cn1` (stereo not drawn) [Example 13, N-(1-Methyl-3-(1′,2′,2′-Trimethyl-1′,2′,4,5-Tetrahydro-2H-Spiro[Furan-3,4′-P yrido[3,2-d][1,3]Oxazin]-6′-yl)-1H-Pyrrolo[2,3-c]Pyridin-5-yl)Acetamide], the IC50 was 104 nM.

With `COCCOc1cc(-c2cn(C)c3cnc(NC(C)=O)cc23)nc2c1CCOC21CCOC1` (stereo not drawn) [Example 15, N-(3-(4′-(2-Methoxyethoxy)-4,5,5′,6′-Tetrahydro-2H-Spiro[Furan-3,8′-Pyrano [3,4-b]Pyridin]-2′-yl)-1-Methyl-1H-Pyrrolo[2,3-c]Pyridin-5-yl)Acetamide], the IC50 was found to be 48.6 nM.

As for `CC(=O)Nc1cc2c(-c3cc(OC(C)C)c4c(n3)C3(CCOC3)OCC4)cn(C)c2cn1` (stereo not drawn) [Example 17, N-(3-(4′-Isopropoxy-4,5,5′,6′-Tetrahydro-2H-Spiro[Furan-3,8′-Pyrano[3,4-b]P yridine]-2′-yl)-1-Methyl-1H-Pyrrolo[2,3-c]Pyridin-5-yl)Acetamide], the IC50 came out at 126 nM.

As to `CC(=O)Nc1cc2c(-c3ccc4c(n3)C3(CCOC3)OCC4(F)F)cn(C)c2cn1` (stereo not drawn) [Example 18, N-(3-(5′,5′-Difluoro-4,5,5′,6′-Tetrahydro-2H-Spiro[Furan-3,8′-Pyrano[3,4-b]P yridine]-2′-yl)-1-Methyl-1H-Pyrrolo[2,3-c]Pyridin-5-yl)Acetamide], the IC50 came to 19.6 nM.

Take `CC(=O)Nc1cc2c(-c3cc(OCCN(C)C)c4c(n3)C3(CCOC3)OCC4)cn(C)c2cn1` (stereo not drawn) [Example 19, N-(3-(4′-(2-(Dimethylamino)Ethoxy)-4,5,5′,6′-Tetrahydro-2H-Spiro[Furan-3,8′ -Pyrano[3,4-b]Pyridine]-2′-yl)-1-Methyl-1H-Pyrrolo[2,3-c]Pyridin-5-yl)Acetamide]: the IC50 turned out to be 115 nM.

`CCCCOc1cc(-c2cn(C)c3cnc(NC(C)=O)cc23)nc2c1CCOC21CCOC1` (stereo not drawn) [Example 20, N-(3-(4′-Butoxy-4,5,5′,6′-Tetrahydro-2H-Spiro[Furan-3,8′-pyrAno[3,4-b]Pyridine]-2′-yl)-1-Methyl-1H-Pyrrolo[2,3-c]Pyridin-5-yl)Acetamide]: the IC50 is 64.9 nM.

For `CC(=O)Nc1cc2c(-c3cc(Cl)c4c(n3)C3(CCOC3)OCC4)cn(C)c2cn1` (stereo not drawn) [Example 21, N-(3-(4′-Chloro-4,5,5′,6′-Tetrahydro-2H-Spiro[Furan-3,8′-Pyrano[3,4-b]Pyridine]-2′-yl)-1-Methyl-1H-Pyrrolo[2,3-c]Pyridin-5-yl)Acetamide], the IC50 came out at 36.9 nM.

Take `COCCCOc1cc(-c2cn(C)c3cnc(NC(C)=O)cc23)nc2c1CCOC21CCOC1` (stereo not drawn) [Example 22, N-(3-(4′-(3-Methoxypropoxy)-4,5,5′,6′-Tetrahydro-2H-Spiro[Furan-3,8′-Pyrano[3,4-b]Pyridin]-2′-yl)-1-Methyl-1H-Pyrrolo[2,3-c]Pyridin-5-yl)Acetamide]: the IC50 is 7.23 nM.

On to `CC(=O)Nc1cc2c(-c3cc(S(C)(=O)=O)c4c(n3)C3(CCOC3)OCC4)cn(C)c2cn1` (stereo not drawn) [Example 23, N-(1-meThyl-3-(4′-(Methylsulfonyl)-4,5,5′,6′-Tetrahydro-2H-Spiro[Furan-3,8′-Pyrano[3,4-b]Pyridin]-2′-yl)-1H-Pyrrolo[2,3-c]Pyridin-5-yl)Acetamide], for which the IC50 was found to be 104 nM.

Take `CC(=O)Nc1cc2c(-c3cc(N(C)C)c4c(n3)C3(CCOC3)OCC4)cn(C)c2cn1` (stereo not drawn) [Example 24, N-(3-(4′-(Dimethylamino)-4,5,5′,6′-Tetrahydro-2H-Spiro[Furan-3,8′-Pyrano[3,4-b]Pyridin]-2′-yl)-1-Methyl-1H-Pyrrolo[2,3-c]Pyridin-5-yl)Acetamide]: the IC50 was 29.9 nM.

As for `CC(=O)Nc1cc2c(-c3cc(C#N)c4c(n3)C3(CCOC3)OCC4)cn(C)c2cn1` (stereo not drawn) [Example 25, N-(3-(4′-Cyano-4,5,5′,6′-Tetrahydro-2H-Spiro[Furan-3,8′-Pyrano[3,4-b]Pyridine]-2′-yl)-1-Methyl-1H-Pyrrolo[2,3-c]Pyridin-5-yl)Acetamide], the IC50 turned out to be 45.5 nM.

As to `COC(C)(C)CCOc1cc(-c2cn(C)c3cnc(NC(C)=O)cc23)nc2c1CCOC21CCOC1` (stereo not drawn) [Example 27, N-(3-(4′-(3-Methoxy-3-Methylbutoxy)-4,5,5′,6′-Tetrahydro-2H-Spiro[Furan-3, 8′-Pyrano[3,4-b]Pyridin]-2′-yl)-1-Methyl-1H-Pyrrolo[2,3-c]Pyridin-5-yl)Acetamide], the IC50 worked out at 13.1 nM.

Turning to `COCCCCOc1cc(-c2cn(C)c3cnc(NC(C)=O)cc23)nc2c1CCOC21CCOC1` (stereo not drawn) [Example 28, N-(3-(4′-(4-Methoxybutoxy)-4,5,5′,6′-Tetrahydro-2H-Spiro[Furan-3,8′-Pyrano[3,4-b]Pyridin]-2′-yl)-1-Methyl-1H-Pyrrolo[2,3-c]Pyridin-5-yl)Acetamide], the IC50 was 12.9 nM.

Take `CC(=O)Nc1cc2c(-c3cc(OCCCN(C)C)c4c(n3)C3(CCOC3)OCC4)cn(C)c2cn1` (stereo not drawn) [Example 29, N-(3-(4′-(3-(Dimethylamino)Propoxy)-4,5,5′,6′-Tetrahydro-2H-Spiro[Furan-3, 8′-Pyrano[3,4-b]Pyridin]-2′-yl)-1-Methyl-1H-Pyrrolo[2,3-c]Pyridin-5-yl)Acetamide]: the IC50 was found to be 93.1 nM.
